How the values were obtained:
[1] = system: plasma active GLP-1 level; assay: Plasma active GLP-1 level in glucose-loaded diabetic mice; assay type: in vivo; conditions: male db/db mice, mean ± SEM, n=8
Description: Male BKS.Cg−+Lepr^db/+Lepr^db/Jcl mice; an Animal Model of Type 2 Diabetes (Purchased from CLEA Japan, Inc.)
(§1) Each test compound was suspended in a solution of 0.5% carboxymethyl cellulose containing 0.2% Tween 80 at the doses indicated in Table 3, and administered to the test group orally at a volume of 5 mL/kg. The vehicle control group was orally administered a solution of 0.5% carboxymethyl cellulose containing 0.2% Tween 80 at a volume of 5 mL/kg. Just after the administration of the compound or vehicle, a glucose solution (2 g/kg/5 mL) was given orally.
Blood was collected from the caudal vein of an unanesthetized mice just before and 0.5, 1, and 2 hours after glucose loading. Plasma active GLP-1 level was determined by using RAT ENDOCRINE LINCOplex KIT (LINCO Research).

[2] = system: plasma active GLP-1 level; assay: Plasma active GLP-1 level in glucose-loaded normal (DPP4-positive) rats, Example 2; assay type: in vivo, rat; conditions: DPP4-positive male Fisher rats, mean ± SEM, n=6
Description: DPP4-positive male Fisher rats (purchased from Japan SLC, Inc.)
as §1, with “2,” for “3,”
Blood was collected from the caudal vein of an unanesthetized rat just before and 0.2, 0.5, 1, and 2 hours after glucose loading. Plasma active GLP-1 level was determined by using RAT ENDOCRINE LINCOplex KIT (LINCO Research).

[3] = system: plasma active GLP-1 level; assay: Plasma active GLP-1 level in glucose-loaded normal (DPP4-positive) rats, Example 4; assay type: in vivo, rat; conditions: Table 6, 10 mg/kg oral, DPP4-positive male Fisher rats, mean ± SEM, n=5 or 6
Description: Each test compound was suspended in a solution of 0.5% carboxymethyl cellulose containing 0.2% Tween 80 at the doses indicated in Table 4, 5 or 6, and administered to the test group orally at a volume of 5 mL/kg. The vehicle control group was orally administered a solution of 0.5% carboxymethyl cellulose containing 0.2% Tween 80 at a volume of 5 mL/kg. Just after the administration of the compound or vehicle, a glucose solution (2 g/kg/5 mL) was given orally.
Blood was collected from the caudal vein of an unanesthetized rat at appropriate time described in the table. Plasma active GLP-1 level was determined by using RAT ENDOCRINE LINCOplex KIT (LINCO Research).

[4] = system: plasma active GLP-1 level; assay: Plasma active GLP-1 level in glucose-loaded DPP4-deficient rats; assay type: in vivo, rat; conditions: for GLP-1 concentration at each time point (hr) after oral administration: DPP4-deficient male Fisher rats, mean ± SEM, n=6
Description: DPP4-deficient male Fisher rats (purchased from Charles River Japan, Inc.)
as §1, with “The” for “Each”, “1,” for “3,”, “ml)” for “mL)”
Blood was collected from the caudal vein of an unanesthetized rat just before and 0.5, 1, and 3 hours after glucose loading. Plasma active GLP-1 level was determined by using RAT ENDOCRINE LINCOplex KIT (LINCO Research).

[5] = 0 hr (just before), 3 mg/kg oral
[6] = 0 hr (just before), 10 mg/kg oral
[7] = 0 hr (just before), 30 mg/kg oral

Question: Which results are given for `N#C[C@@H]1CCCN1C(=O)CN[C@H]1CC[C@H](C(=O)N2CCOCC2)CC1` (relative stereo) [Compound B, (2S)-2-Cyano-1-[trans-4-(morpholinocarbonyl)cyclohexylamino]acetylpyrrolidine]?
Answer: GLP-1 concentration at each time point (hr) after oral administration [1, 5]: 18.4 ± 5.1 pM; GLP-1 concentration at each time point (hr) after oral administration ([1]; 0.5 hr, 3 mg/kg oral): 30.0 ± 5.5 pM; GLP-1 concentration at each time point (hr) after oral administration ([1]; 1 hr, 3 mg/kg oral): 46.5 ± 10.1 pM; GLP-1 concentration at each time point (hr) after oral administration ([1]; 2 hr, 3 mg/kg oral): 25.0 ± 4.1 pM; GLP-1 concentration at each time point (hr) after oral administration [2, 5]: 7.2 ± 0.6 pM; GLP-1 concentration at each time point (hr) after oral administration ([2]; 0.2 hr, 3 mg/kg oral): 9.8 ± 0.7 pM; GLP-1 concentration at each time point (hr) after oral administration ([2]; 0.5 hr, 3 mg/kg oral): 9.4 ± 0.4 pM; GLP-1 concentration at each time point (hr) after oral administration ([2]; 1 hr, 3 mg/kg oral): 8.3 ± 0.3 pM; GLP-1 concentration at each time point (hr) after oral administration ([2]; 2 hr, 3 mg/kg oral): 7.9 ± 0.5 pM

Question: Which “GLP-1 concentration at 2 hr after oral administration” value [3] does the source give for `CN(C)C(=O)[C@H]1CC[C@H](NCC(=O)N2CCC[C@H]2C#N)CC1.O=S(=O)(O)c1ccccc1` (relative stereo) [Compound I, (2S)-2-cyano-1-[trans-4-(dimethylaminocarbonyl)cyclohexylamino]acetylpyrrolidine besylate] here?
Answer: 4.0 ± 0.6 pM

Question: `OC[C@H]1O[C@@H](c2ccc(Cl)c(Cc3ccc(-c4cccc(F)n4)s3)c2)[C@H](O)[C@@H](O)[C@@H]1O` [Compound A, 1-(β-D-glucopyranosyl)-4-chloro-3-[5-(6-fluoro-2-pyridyl)-2-thienylmethyl]benzene] was tested. Which “GLP-1 concentration at each time point (hr) after oral administration” value (shortened to “GLP-1 concentration at each time point”) [1, 6] did it give?
Answer: 20.3 ± 9.6 pM

Question: And the “GLP-1 concentration at each time point” value ([1]; 0.5 hr, 10 mg/kg oral)?
Answer: 42.6 ± 13.4 pM

Question: And the “GLP-1 concentration at each time point” value ([1]; 1 hr, 10 mg/kg oral)?
Answer: 49.4 ± 12.0 pM

Question: What about the “GLP-1 concentration at each time point” value ([1]; 2 hr, 10 mg/kg oral) of the same compound?
Answer: 30.9 ± 8.2 pM

Question: What about the “GLP-1 concentration at each time point” value [4, 6] of the same compound?
Answer: 6.2 ± 1.3 pM

Question: What about the “GLP-1 concentration at each time point” value [4, 7] of the same compound?
Answer: 5.3 ± 0.7 pM

Question: And the “GLP-1 concentration at each time point” value ([4]; 0.5 hr, 10 mg/kg oral)?
Answer: 24.5 ± 4.7 pM

Question: What about the “GLP-1 concentration at each time point” value ([4]; 0.5 hr, 30 mg/kg oral) of the same compound?
Answer: 24.9 ± 3.8 pM

Question: What about the “GLP-1 concentration at each time point” value ([4]; 1 hr, 10 mg/kg oral) of the same compound?
Answer: 31.3 ± 7.0 pM

Question: And the “GLP-1 concentration at each time point” value ([4]; 1 hr, 30 mg/kg oral)?
Answer: 34.1 ± 5.7 pM

Question: And the “GLP-1 concentration at each time point” value ([4]; 3 hr, 10 mg/kg oral)?
Answer: 21.9 ± 2.4 pM

Question: What about the “GLP-1 concentration at each time point” value ([4]; 3 hr, 30 mg/kg oral) of the same compound?
Answer: 27.1 ± 2.1 pM

Question: And the “effect on plasma active GLP-1 level (in words)” value ([4]; DPP4-deficient rats, summary of Table 1)?
Answer: markedly increased

Question: And the “GLP-1 concentration at each time point” value [2, 6]?
Answer: 7.7 ± 0.4 pM

Question: And the “GLP-1 concentration at each time point” value [2, 7]?
Answer: 5.9 ± 0.3 pM

Question: What about the “GLP-1 concentration at each time point” value ([2]; 0.2 hr, 10 mg/kg oral) of the same compound?
Answer: 7.9 ± 0.2 pM

Question: What about the “GLP-1 concentration at each time point” value ([2]; 0.2 hr, 30 mg/kg oral) of the same compound?
Answer: 7.1 ± 0.3 pM

Question: And the “GLP-1 concentration at each time point” value ([2]; 0.5 hr, 10 mg/kg oral)?
Answer: 10.2 ± 1.0 pM

Question: What about the “GLP-1 concentration at each time point” value ([2]; 0.5 hr, 30 mg/kg oral) of the same compound?
Answer: 6.7 ± 0.4 pM

Question: What about the “GLP-1 concentration at each time point” value ([2]; 1 hr, 10 mg/kg oral) of the same compound?
Answer: 9.5 ± 0.6 pM

Question: And the “GLP-1 concentration at each time point” value ([2]; 1 hr, 30 mg/kg oral)?
Answer: 7.5 ± 0.9 pM

Question: And the “GLP-1 concentration at each time point” value ([2]; 2 hr, 10 mg/kg oral)?
Answer: 9.6 ± 0.8 pM

Question: What about the “GLP-1 concentration at each time point” value ([2]; 2 hr, 30 mg/kg oral) of the same compound?
Answer: 9.0 ± 0.9 pM
